Several values for one entry are separate records, joined by “and”; a condition that tells them apart may be missing. Identical values can stand only once. Like-named read-outs stand apart in the source and are kept apart here.
How the values were obtained:
CB1R [1] = biological target: T1, CB1R (Homo sapiens, UniProt P21554); assay: [3H]SR141716A equilibrium binding, hCB1R CHO cell membranes
CB1R [2] = biological target: T2, CB1R (Mus musculus, UniProt P47746); assay: Operational model bias analysis, Neuro2a cells; format: cell-based; details: for ΔΔlog R β-arrestin1/pPLCβ3: reference 2-AG + GAT100
T2 sequence (P47746 whole entry): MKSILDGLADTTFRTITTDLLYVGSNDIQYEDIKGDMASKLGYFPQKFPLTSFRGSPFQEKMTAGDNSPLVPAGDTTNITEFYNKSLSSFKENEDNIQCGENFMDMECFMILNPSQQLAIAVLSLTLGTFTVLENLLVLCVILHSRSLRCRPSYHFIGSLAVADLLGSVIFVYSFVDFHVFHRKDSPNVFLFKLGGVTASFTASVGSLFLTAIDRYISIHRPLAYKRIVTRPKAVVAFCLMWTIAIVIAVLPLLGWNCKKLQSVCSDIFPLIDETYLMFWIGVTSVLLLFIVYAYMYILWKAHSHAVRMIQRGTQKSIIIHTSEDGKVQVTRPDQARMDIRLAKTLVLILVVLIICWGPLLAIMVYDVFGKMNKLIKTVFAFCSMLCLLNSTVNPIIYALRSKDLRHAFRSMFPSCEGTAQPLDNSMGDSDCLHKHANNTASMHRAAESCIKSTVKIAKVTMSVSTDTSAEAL

CB1R [3] = biological target: T2, CB1R; format: cell-based
CB1R [4] = biological target: T1, CB1R; assay: cell-based; format: cell-based
CB1R [5] = format: cell-based
CB1R [6] = biological target: T2, CB1R; assay: Operational model bias analysis, STHdh^Q7/Q7 cells; details: for BF β-arrestin1/pERK1/2 / BF β-arrestin1/pPLCβ3: STHdh^Q7/Q7
CB1R [7] = biological target: T2, CB1R; format: cell-based; details: Neuro2a, 10 min
CB1R [8] = biological target: T1, CB1R; format: cell-based; details: Neuro2a, 30 min
CB1R [9] = biological target: T1, CB1R; format: cell-based; details: HEK293A, 10 min
hCB1R = assay: Operational model bias analysis, HEK293A cells; format: cell-based, human; details: for ΔΔlog R β-arrestin1/cAMP / ΔΔlog R β-arrestin1/pPLCβ3: reference 2-AG + GAT100
CB1R [10] = details: cited from earlier work
CB1R [11] = biological target: T1, CB1R; assay: cell-based
CB1R [12] = format: cell-based; remark: listed apart in the source
CB1R [13] = biological target: T1, CB1R; assay: cell-based; format: cell-based; remark: listed apart in the source
CB1R [14] = biological target: T1, CB1R; format: cell-based; details: HEK293A, 30 min
CB1R [15] = biological target: T2, CB1R
CB1R [16] = test system: CB1R
CB1R [17] = biological target: T2, CB1R; format: cell-based; remark: listed apart in the source
CB1R [18] = biological target: T2, CB1R; assay: cell-based; details: IC50, PLCβ3 phosphorylation, CP55,940
[19] = 500 nM 2-AG + 1 nM-10 μM allosteric modulator
[20] = 500 nM AEA + 1 nM-10 μM allosteric modulator
[21] = 500 nM CP55,940 + 1 nM-10 μM allosteric modulator
[22] = HEK293A, 500 nM 2-AG + 1 nM-10 μM allosteric modulator
[23] = HEK293A, 500 nM AEA + 1 nM-10 μM allosteric modulator
[24] = HEK293A, 500 nM CP55,940 + 1 nM-10 μM allosteric modulator

T1 sequence (P21554 whole entry): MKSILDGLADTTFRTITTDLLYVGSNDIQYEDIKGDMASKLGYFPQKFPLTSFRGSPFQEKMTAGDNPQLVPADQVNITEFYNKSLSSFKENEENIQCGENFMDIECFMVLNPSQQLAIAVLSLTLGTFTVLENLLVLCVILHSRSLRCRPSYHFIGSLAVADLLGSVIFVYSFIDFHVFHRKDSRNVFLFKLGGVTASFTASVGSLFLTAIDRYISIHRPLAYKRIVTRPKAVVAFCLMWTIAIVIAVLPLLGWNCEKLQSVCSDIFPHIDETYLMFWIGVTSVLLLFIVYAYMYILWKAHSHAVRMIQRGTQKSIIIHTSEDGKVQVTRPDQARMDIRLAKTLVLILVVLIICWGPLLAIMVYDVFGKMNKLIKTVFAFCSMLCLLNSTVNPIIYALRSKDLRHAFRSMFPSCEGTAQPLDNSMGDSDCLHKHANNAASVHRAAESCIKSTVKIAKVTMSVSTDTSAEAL

CCc1c(C(=O)NCCc2ccc(N3CCCCC3)cc2)[nH]c2ccc(Cl)cc12 [Org27569, 5-chloro-3-ethyl-N-(4-(piperidin-1-yl)phenethyl)-1H-indole-2-carboxamide]
EC50 (CB1R [1]): 2520 nM
Emax (CB1R [1]; read-out: Emax, [3H]SR141716A binding): -17.6%
BF β-arrestin1/pERK1/2 (CB1R [2]; [19]): 3.2
BF β-arrestin1/pPLCβ3 (CB1R [2]; [19]): 0.6
ΔΔlog R β-arrestin1/pPLCβ3 (CB1R [2]; [19]): –0.2 ± 0.2
BF β-arrestin1/pERK1/2 (CB1R [2]; [20]): 1.6
BF β-arrestin1/pPLCβ3 (CB1R [2]; [20]): 4.0
ΔΔlog R β-arrestin1/pPLCβ3 (CB1R [2]; [20]): 0.6 ± 0.2
BF β-arrestin1/pERK1/2 (CB1R [2]; [21]): 3.2
BF β-arrestin1/pPLCβ3 (CB1R [2]; [21]): 4.0
ΔΔlog R β-arrestin1/pPLCβ3 (CB1R [2]; [21]): 0.6 ± 0.4
Emax pERK1/2/Total ERK1/2, 2-AG (CB1R [3]; Neuro2a, 1 nM-10 μM 2-AG + 1 μM NAM, 10 min): 0.48 ± 0.03
Emax pERK1/2/Total ERK1/2, AEA (CB1R [3]; Neuro2a, 1 nM-10 μM AEA + 1 μM NAM, 10 min): 0.44 ± 0.02
Emax pERK1/2/Total ERK1/2, CP55,940 (CB1R [3]; Neuro2a, 1 nM-10 μM CP55,940 + 1 μM NAM, 10 min): 0.43 ± 0.02
Emax pPLCβ3/Total PLCβ3, 2-AG (CB1R [4]; HEK293A, 1 nM-10 μM 2-AG + 1 μM NAM, 10 min): 0.52 ± 0.02
Emax pPLCβ3/Total PLCβ3, AEA (CB1R [4]; HEK293A, 1 nM-10 μM AEA + 1 μM NAM, 10 min): 0.49 ± 0.02
Emax pPLCβ3/Total PLCβ3, CP55,940 (CB1R [4]; HEK293A, 1 nM-10 μM CP55,940 + 1 μM NAM, 10 min): 0.60 ± 0.03
IC50 (CB1R [4]; IC50, PLCβ3 phosphorylation, CP55,940): 151 nM
Emax, ERK (pathway ligand bias summary) (CB1R [5]; mean of data for the pathway (Table 3), all cells and orthosteric ligands): 0.45 ± 0.01
BF β-arrestin1/pERK1/2 (CB1R [6]; [19]): 0.5
BF β-arrestin1/pPLCβ3 (CB1R [6]; [19]): 0.3
BF β-arrestin1/pERK1/2 (CB1R [6]; [20]): 1.3
BF β-arrestin1/pPLCβ3 (CB1R [6]; [20]): 0.2
BF β-arrestin1/pERK1/2 (CB1R [6]; [21]): 0.3
BF β-arrestin1/pPLCβ3 (CB1R [6]; [21]): 0.8
Emax pPLCβ3/Total PLCβ3, 2-AG (CB1R [7]; 1 nM-10 μM 2-AG + 1 μM NAM): 0.53 ± 0.02
Emax pPLCβ3/Total PLCβ3, AEA (CB1R [7]; 1 nM-10 μM AEA + 1 μM NAM): 0.52 ± 0.02 ^††
Emax pPLCβ3/Total PLCβ3, CP55,940 (CB1R [7]; 1 nM-10 μM CP55,940 + 1 μM NAM): 0.58 ± 0.02 ^††
Emax (BRETEff), 2-AG (CB1R [8]; 1 nM-10 μM 2-AG + 1 μM NAM): 0.47 ± 0.03
Emax (BRETEff), AEA (CB1R [8]; 1 nM-10 μM AEA + 1 μM NAM): 0.44 ± 0.02
Emax (BRETEff), CP55,940 (CB1R [8]; 1 nM-10 μM CP55,940 + 1 μM NAM): 0.60 ± 0.05
Emax pERK1/2/Total ERK1/2, 2-AG (CB1R [9]; 1 nM-10 μM 2-AG + 1 μM NAM): 0.46 ± 0.02
Emax pERK1/2/Total ERK1/2, AEA (CB1R [9]; 1 nM-10 μM AEA + 1 μM NAM): 0.42 ± 0.02
Emax pERK1/2/Total ERK1/2, CP55,940 (CB1R [9]; 1 nM-10 μM CP55,940 + 1 μM NAM): 0.40 ± 0.01
BF β-arrestin1/cAMP (hCB1R; [22]): 0.2
BF β-arrestin1/pERK1/2 (hCB1R; [22]): 0.1
BF β-arrestin1/pPLCβ3 (hCB1R; [22]): 0.1
ΔΔlog R β-arrestin1/cAMP (hCB1R; [22]): –0.6 ± 0.8
ΔΔlog R β-arrestin1/pPLCβ3 (hCB1R; [22]): –1.0 ± 0.9
BF β-arrestin1/cAMP (hCB1R; [23]): 0.1
BF β-arrestin1/pERK1/2 (hCB1R; [23]): 15.8
BF β-arrestin1/pPLCβ3 (hCB1R; [23]): 0.03
ΔΔlog R β-arrestin1/cAMP (hCB1R; [23]): –1.2 ± 0.6
ΔΔlog R β-arrestin1/pPLCβ3 (hCB1R; [23]): –1.6 ± 0.6
BF β-arrestin1/cAMP (hCB1R; [24]): 1.0
BF β-arrestin1/pERK1/2 (hCB1R; [24]): 4.0
BF β-arrestin1/pPLCβ3 (hCB1R; [24]): 0.5
ΔΔlog R β-arrestin1/cAMP (hCB1R; [24]): 0.0 ± 0.6
ΔΔlog R β-arrestin1/pPLCβ3 (hCB1R; [24]): –0.3 ± 0.1
effect on CP55,940 equilibrium binding by CB1R (CB1R [10]): increase CP55,940 equilibrium binding
IC50 (CB1R [11]): 236 nM
Emax, β-arrestin1 (pathway ligand bias summary) (CB1R [11]; mean of data for the pathway (Table 1), all cells and orthosteric ligands): 0.50 ± 0.02
Emax, PLCβ3 (pathway ligand bias summary) (CB1R [12]; mean of data for the pathway (Table 2), all cells and orthosteric ligands): 0.55 ± 0.01
Emax, cAMP (pathway ligand bias summary) (CB1R [13]): 0.31 ± 0.04 ^†
effect on cAMP levels in the absence of orthosteric agonists (inverse agonism) (CB1R [13]; HEK-CRE, 10 μM forskolin + 1 nM to 10 μM compound alone, 4 h): increased cAMP levels significantly
IC50 (CB1R [13]; IC50, cAMP, CP55,940): 969 nM
Emax (CB1R [13]; read-out: Emax (% cAMP inhibition), CP55,940): 25.7 ± 1.64%
Emax (BRETEff), 2-AG (CB1R [14]; 1 nM-10 μM 2-AG + 1 μM NAM): 0.49 ± 0.03
Emax (BRETEff), AEA (CB1R [14]; 1 nM-10 μM AEA + 1 μM NAM): 0.49 ± 0.02
Emax (BRETEff), CP55,940 (CB1R [14]; 1 nM-10 μM CP55,940 + 1 μM NAM): 0.58 ± 0.03
effect on CP55,940-induced CB1R internalization (fraction of CB1R at the plasma membrane) (CB1R [15]; STHdh^Q7/Q7, 1 μM + 500 nM CP55,940): reversed this effect
Emax, 2-AG (probe dependence summary) (CB1R [16]; mean of data for 2-AG (Tables 1-4)): 0.49 ± 0.02
Emax, AEA (probe dependence summary) (CB1R [16]; mean of data for AEA (Tables 1-4)): 0.45 ± 0.03
Emax, CP55,940 (probe dependence summary) (CB1R [16]; mean of data for CP55,940 (Tables 1-4)): 0.50 ± 0.04
Emax, HEK293A (cell dependence summary) (CB1R [16]; mean of data for HEK293A (Tables 1-3)): 0.49 ± 0.02
Emax, Neuro2a (cell dependence summary) (CB1R [16]; mean of data for Neuro2a (Tables 1-3)): 0.50 ± 0.02
Emax, STHdh^Q7/Q7 (cell dependence summary) (CB1R [16]; mean of data for STHdh^Q7/Q7 (Tables 1-3)): 0.51 ± 0.02

— paper PMC5358098 (ACS chemical neuroscience, 2016)
